Source: patent publication US20120157401A1, “METHODS FOR TREATING NEUROFIBROMATOSIS” (PTC Therapeutics, Inc., priority 2009, published 2012)
Marks after values point to notes of the source that are not given here.

Tests used:
[1] = test system: HT1080 tumor cells in vivo; test: HT1080 xenograft studies of Compound 1205, Compound #10 and Compound 1330: tumor growth; parameters: species or system athymic nude mice; settings: Study 24a, 10 mg/kg QD
From the text: Experimental Design. HT1080 cells (5×10^6 cells/mouse) were implanted subcutaneously in male athymic nude mice. […] For comparison, Compound #10 was included in this study.

MDA-MB-468 xenografts = test: MDA-MB-468 estrogen-insensitive breast cancer xenograft: tumor growth; format: in vivo
Description: Tumor size was measured by calipers at periodic intervals. When the individual tumor size in a mouse exceeded 1500 mm^3, that mouse was sacrificed and both tumor and plasma were assayed for pathologic VEGF concentration as described in Section 9.1.1.1.

COc1ccc(C2c3[nH]c4ccc(Cl)cc4c3CCN2C(=O)Oc2ccc(Cl)cc2)cc1 (racemic) [Compound #10]
Difference vs. vehicle in median number of days to reach 1000 mm^3 [1]: 8** Days
Mean difference in tumor growth rate at the Day that the vehicle-treated tumors taken off study ([1]; Day 11): 59%**
Final mean terminal tumor size in treatment group ([1]; Xeno): 1460 mm^3
Mean % Inhibition of Tumor Size vs Vehicle at Day 12 (MDA-MB-468 xenografts; 10 mg/kg oral QD): 65* %
Median Time to Tumor Size ≧1000 mm^3 (MDA-MB-468 xenografts; 10 mg/kg oral QD): 25 days
Toxicity on observing the animals (MDA-MB-468 xenografts; MDA-MB-468 xenograft mice, 10 mg/kg QD): no evidence of toxicity
